The nature of series [1]: Questionnaire on side effects after creatine supplementation. Format: in vivo, human. The conditions noted are these: after each period of one week creatine supplementation vs initial visit. The text has this:
(§1) The health status questionnaire was filled in again.

Series [2] is described as follows: Plasma and erythrocyte creatine and creatinine after one week creatine supplementation (3×2 g per day). Format: in vivo, human. On the procedure: as §1
(§2) Venous blood was collected on heparin as an anticoagulant. The tubes were placed immediately on ice and centrifuged at 3000 g for 6 min at 4° C. Plasma (900 μL) was deproteinized with sulfosalicylic acid 5% (300 μL) and centrifuged again at 3000 g for 6min. NaOH 0.1M (90 μL) was added to supernatant (300 μL) to obtain a pH value of about 7.8. Samples were stored at −20° C.
After the first centrifugation, erythrocytes were washed twice with a similar volume of physiological water (0.9% NaCl, centrifugation: 1000 g, 5 min, 4° C.). After three frozen and defrozen procedures, erythrocytes (300 μL) were deproteinized with sulfosalicylic acid 5% (600 μL) and then centrifuged at 3000 g during 6 min. Supernatant was collected and centrifuged again. The clear supernatant was neutralized with NaOH 0.1M.
(§3) An aliquot (10 mL) was stored at −20° C. […] An aliquot was stored at −80° C.

Series [3] can be described thus: Urinary creatine and creatinine excretion after a single 2 g creatine dose. The conditions noted are these: whatever the form, excretion slightly less than 1 g/24 h. The method, then:
as §1
An aliquot (10 mL) was stored at −20° C.

The nature of series [4]: Creatine and creatinine in 24 h feces by HPLC. Type of series: in vivo, human. The conditions noted are these: basal or supplemented, could not be quantified. The method, then: as §1, §3
Both creatine and creatinine content in feces was analyzed by HPLC at 205 nm. After dilution of a feces aliquot in 0.045M ammonium sulfate containing an internal standard (4-[2-aminoethyl]-benzene sulfonamide), the sample was filtered on a 10 kDa membrane. The following conditions were used to identify creatine: 2 Beckman RP-C18 Ultrasphere ODS columns 5μ 25 cm*4.6 mm; elution: A/B (70/30) with 0.05% anhydrous trifluoroacetic acid (TFA) at 1.0 mL/min; A: 0.1% H3PO4 in deionised H2O; B: 1.4 mg sodium dodecylsulfate/mL acetonitril. […] The values reported for creatine in the results section correspond to highest possible estimates including a probable overestimation.

For series [5] the following is noted: 21 g/d creatine for 2 weeks; levels within the normal range; cited from earlier work.
Series [6] is described as follows: Plasma creatine kinetics after a single 2 g creatine dose (one-open compartmental model). Type of series: in vivo, human. On the procedure:
as §1, §2, §3
Using a Marquardt algorithm, all kinetics were fitted with the following equation:
C(FD/V*(ka/(ka−kel))*(exp(−kel*(t−tlag))−exp(−ka*(t−tlag)))) (equation 1)
where C is the plasma creatine concentration minus the basal concentration (μM) • if C 0, then data were removed • F is the bioavailability • D is the dose (2 g or 15 300 μmol) • is the volume of distribution • ka is the velocity constant of absorption (first order, h^−1) • kel is the velocity constant of elimination (first order, h^−1) • t is the time (h) • tlag is the lag-time (h)
This equation corresponds to a one-open compartmental model in which ka, kel and tlag are the primary parameters. Knowing their value, new kinetic parameters of plasma creatine were calculated:
AUCO,∞:the area under the curve integrated from zero to infinity
Since the bioavailability (F) may not be measured, only the apparent volume of distribution and the apparent clearance can be estimated:
Vd: the apparent volume of distribution (Vd=V/F, L)
C: the apparent clearance (Cl=Kel·Vd, L.h^−1)

The term half-life denotes how long it takes for the measured level to halve. Regarding `CN(CC(=O)O)C(=N)N` [creatine], in series [1], the “frequency of declared health troubles (side effects)” value was “No difference was observed in the frequency of declared health troubles except for muscle cramps which were less frequently reported”. Besides, the “erythrocyte creatinine concentration during the experiment” value in series [2] (basal about 25 μM) is listed as “remained stable”. For the same compound, in series [2] (one week, 3×2 g per day, fasted state, post vs pre), the “plasma creatine concentration after supplementation, fold higher” value is given as 11±2.5 fold. The “increase of erythrocyte creatine concentration after supplementation” value in series [2] (one week, 3×2 g per day, independent of the form ingested) stood at 88±22%. Further, the “Creatinine urinary excretion, effect of creatine ingestion” value in series [3] was “not affected”. In addition, in series [4], the “maximal estimated value of creatine in feces” value is recorded as ≤ 50±5.7 μg per gram fresh feces. The “excretion of methylamine and formaldehyde” value in series [5] is “increased excretion of methylamine and formaldehyde”. Moreover, in series [6] (after ingestion of 2 g creatine, not influenced by the form ingested), the “apparent volume of distribution relative to body mass” value is given as “about 75 % of body mass”. The “change of plasma creatinine concentration after single dose” value in series [6] (eight hours following ingestion of 2 g creatine, independent of treatment, basal 53.5±1.50 μM) is on record as “changed by only a few μM”. For the same compound, the half-life in series [6] (human, plasma, oral, after ingestion of 2 g creatine, mean over the forms, read-out: mean half-life of elimination (converted)) was 1.09 ± 0.06 h.

These data come from patent publication US20110130460A1, “INCREASED CREATINE RETENTION WITH SOLUBLE FIBRES” (priority 2007, published 2011).
